Test results: patent US6592911B2, “(−)-Olivil as antioxidant which is obtained from a new natural source namely Stereospermum personatum” (Council of Scientific and Industrial Research, priority 2001, dated 2003)

Assay: In vitro free radical (DPPH) scavenging antioxidant potency
Format: biochemical
Settings: for 50% Radical scavenging concentration of compounds, Concentration: DPPH radical 500 μM in ethanol, tris-HCl buffer pH 7.4, 45 minutes in dark, absorbency at 517 nm, triplicate
Procedure: In Vitro Evaluation of Free Radical Scavenging Antioxidant Potency
Antioxidant activity of the compounds was tested for its capacity/potency to scavenge most widely used free radical, 1,1-diphenyl-2-picryl hyrazyl radical (DPPH). […] 200 μl of test compounds were reconstituted to 1 ml in tris-HCl buffer (pH 7.4). Equal volume of 500 μM of DPPH radical dissolved in ethanol was reacted with this. After incubation for 45 minutes in dark, the absorbency at 517 nm was recorded. Percent radical scavenging activity was calculated accordingly. All the readings were taken in triplicate.

Structure (SMILES) | 50% Radical scavenging concentration of compounds, Concentration | antioxidant activity compared with reference drugs Probucol and alpha-tocopherol (comparison in words)
COc1cc(C[C@]2(O)CO[C@@H](c3ccc(O)c(OC)c3)[C@@H]2CO)ccc1O [(−)-Olivil] | 22.24 µg/mL | better than the above mentioned reference drugs
Cc1c(C)c2c(c(C)c1O)CCC(C)(CCCC(C)CCCC(C)CCCC(C)C)O2 (stereo not drawn) [DL α-Tocopherol, reference compound] | 47.80 µg/mL | –
